The record followed here is patent publication US9914955B2, “Genetically encoded FRET-based MMP-9 activity biosensor and use thereof” (Instytut Biologii Doświadczalnej im. Marcelego Nenckiego …, priority 2013, dated 2018).

In test [1] the test system is human auto-activating MMP-9. As to the kind of experiment: In vitro cleavage of the biosensor in HEK293 lysate by auto-activating MMP-9, western blot. The class given is biochemical. The conditions noted are these: inhibitor 25 μM final concentration. On the technique in general: Immunoblotting shows a protein as a band on a membrane.
The next test deals with HEK293 cell lysate. Nature of the test: Baseline cleavage of the biosensor in untreated HEK293 lysate, western blot. The class given is biochemical. The procedure: Two days post-transfection HEK293 cells were washed one with PBS, scraped from the plate and lysed for 1 h at 4° C. with the following buffer: 50 mM Tris-Cl pH 7.5, 1% Triton X-100, 10 mM CaCl2, 0.02% NaN3, 1 μM ZnCl2. The lysis was performed without protease inhibitors since it was feared that they might block the activity of our auto-activating MMP-9. The lysate was then centrifuged at 13400 rpm for 15′ at 4° C. to remove cell debris. Equal amount of the cleared lysate were used in the subsequent reactions. […] GM6001 inhibitor was used in 25 μM final concentration. Reactions were stopped at either 30′, 1 h, 4 h or after overnight incubation at 37° C. with the addition of SDS-PAGE Sample Buffer and heating to 100° C. for 10 minutes. Sensor was detected on Western Blot with the anti-GFP antibody.

As to `CNC(=O)[C@H](Cc1c[nH]c2ccccc12)NC(=O)[C@@H](CC(=O)NO)CC(C)C` [GM6001], the “effect of inhibitor on biosensor cleavage by auto-activating MMP-9” value in test [1] was “blocked”. In the test with HEK293 cell lysate, the “effect of inhibitor on baseline cleavage of the biosensor” value is “at least partially, blocked”.
